Assay results from patent publication US20030130123A1, “2-Phenyl-2h-pyridazine-3-ones” (priority 2000, published 2003).

Assays:
[1] = tested on: GALAP (catchweed); assay: Greenhouse herbicidal action, postemergence treatment; type: in vivo; settings: 100 = complete destruction, 0 = no damage
Text: (§1) The herbicidal action of the 2-phenylpyridazin-3-one compounds of the formula I could be shown by means of greenhouse experiments: […]
(§2) The cultivation containers used were plastic pots containing loamy sand with approximately 3.0% of humus as a substrate. The seeds of the test plants were sown separately according to species.
(§3) For the purpose of postemergence treatment, the test plants were first raised up to a growth height of 3 to 15 cm, depending on growth form, and then treated with the active compounds suspended or emulsified in water. For this, the test plants were either sown directly and raised in the same containers or they were first raised separately as seedlings and transplanted into the experimental containers a few days before the treatment. The application rate for the postemergence treatment was 15.6 or 7.8 g of a.s./ha.
(§4) The plants were kept species-specifically at temperature from 10-25° C. or 20-35° C. The experimental period extended over 2 to 4 weeks. During this time, the plants were tended, and their reaction to the individual treatments was assessed.
(§5) Assessment was carried out on a scale from 0 to 100. 100 here means no emergence of the plants or complete destruction of at least the above-ground parts and 0 means no damage or normal course of growth.
(§6) The plants used in the greenhouse experiments were made up of the following species:
(§7) The compound Ia.4 from Example 1 and the compound of Example 1-637 (X=H), disclosed in WO 97/07104, were tested in the postemergence process in the manner described.

[2] = tested on: BIDPI (hairy beggarticks); assay: as above; type: in vivo; settings: 100 = complete destruction, 0 = no damage
Text: as §1, §2, §3, §4, §5, §6, §7

[3] = tested on: COMBE (dayflower); assay: as above; type: in vivo; settings: 100 = complete destruction, 0 = no damage
Text: as §1, §2, §3, §4, §5, §6, §7

[4] = tested on: ABUTH (velvetleaf); assay: as above; type: in vivo; settings: 100 = complete destruction, 0 = no damage
Text: as §1, §2, §3, §4, §5, §6, §7

[5] = tested on: IPOSS (morning glory); assay: as above; type: in vivo; settings: 100 = complete destruction, 0 = no damage
Text: as §1, §2, §3, §4, §5, §6, §7

[6] = application rate 7.8 g/ha (a.s.)
[7] = application rate 15.6 g/ha (a.s.)

CCOC(=O)C(Cl)=Cc1cc(-n2ncc(C(F)(F)F)c(C)c2=O)ccc1Cl [Ia.4, 2-[4-Chloro-3-(2-ethoxycarbonyl-2-chloroethen-1-yl)phenyl]-4-methyl-5-trifluoromethyl-2H-pyridazin-3-one]
Herbicidal action, assessment on a scale from 0 to 100 [1, 6]: 100 | Herbicidal action, assessment on a scale from 0 to 100 [1, 7]: 100 | Herbicidal action, assessment on a scale from 0 to 100 [2, 6]: 80 | Herbicidal action, assessment on a scale from 0 to 100 [2, 7]: 98 | Herbicidal action, assessment on a scale from 0 to 100 [3, 6]: 100 | Herbicidal action, assessment on a scale from 0 to 100 [3, 7]: 100 | Herbicidal action, assessment on a scale from 0 to 100 [4, 6]: 100 | Herbicidal action, assessment on a scale from 0 to 100 [4, 7]: 100 | Herbicidal action, assessment on a scale from 0 to 100 [5, 6]: 100 | Herbicidal action, assessment on a scale from 0 to 100 [5, 7]: 100

COCCOC(=O)C(Cl)=Cc1cc(-n2ncc(C(F)(F)F)c(C)c2=O)ccc1Cl [Ia.12, 2-{4-Chloro-3-[2-(2-methoxyethoxy)carbonyl-2-chloroethen-1-yl]phenyl}-4-methyl-5-trifluoromethyl-2H-pyridazin-3-one]
melting point: 60 to 62 °C

Cc1c(C(F)(F)F)cnn(-c2ccc(Cl)c(C=C(Cl)C(=O)OCCC#N)c2)c1=O [Ia.16, 2-{4-Chloro-3-[2-(2-cyanoethoxy)carbonyl-2-chloroethen-1-yl]phenyl}-4-methyl-5-trifluoromethyl-2H-pyridazin-3-one]
melting point: 78 to 79 °C

C=CCOC(=O)C(Cl)=Cc1cc(-n2ncc(C(F)(F)F)c(C)c2=O)ccc1Cl [Ia.41, 2-[4-Chloro-3-(2-allyloxycarbonyl-2-chloroethen-1-yl)phenyl]-4-methyl-5-trifluoromethyl-2H-pyridazin-3-one]
melting point: 62 to 63 °C

C#CCOC(=O)C(Cl)=Cc1cc(-n2ncc(C(F)(F)F)c(C)c2=O)ccc1Cl [Ia.42, 2-[4-Chloro-3-(2-propargyloxycarbonyl-2-chloroethen-1-yl)phenyl]-4-methyl-5-trifluoromethyl-2H-pyridazin-3-one]
melting point: 81 to 82 °C
